Experiment [1] concerns the target T1, purified PTP domain of SHP2 (Homo sapiens (Human), UniProt Q06124). Nature of the experiment: PTPase assay with DiFMUP, SHP2. To be noted: for pIC50: 1 nM enzyme, 20 μM DiFMUP, 37° C., 20 min; for fold difference: SHP2 IC50 relative to CNBCA. Format: biochemical.
The test system of experiment [2] is Akt and ERK1/2 activation in BT474 and MDA-MB468 cells. Nature of the experiment: Immunoblotting for basal pERK1/2 and pAkt, CNBCA. Format: cell-based. To be noted: 48 h. Background: Immunoblotting shows a protein as a band on a membrane.
Experiment [3] deals with BT474 and MDA-MB468 cells. Nature of the experiment: Colony formation in soft agar, CNBCA. Format: cell-based. To be noted: 500 nM, 10 days.
The next experiment concerns the target SHP2 (Homo sapiens (Human), UniProt Q06124). The experiment in a line: Enzyme kinetic studies with DiFMUP (Michaelis-Menten, Lineweaver-Burk). Format: biochemical. To be noted: for Km: 36.05 in its absence.
In experiment [4] the target is T2, purified PTP domain of SHP1 (Homo sapiens (Human), UniProt P29350). The experiment in a line: PTPase assay with DiFMUP, SHP1. Format: biochemical.
Experiment [5] deals with purified PTP domain of PTP1B (Homo sapiens (Human), UniProt P18031). Nature of the experiment: PTPase assay with DiFMUP, PTP1B. Format: biochemical.
The target of the next experiment is FL-SHP2 (Homo sapiens (Human), UniProt Q06124). Nature of the experiment: PTPase assay on FLAG-tagged FL-SHP2 immunoprecipitated from MDA-MB468 cells. It counts as biochemical. To be noted: 20 μM DiFMUP.
For experiment [6], the system named is BT474 and MDA-MB468 cells. Nature of the experiment: Mammosphere formation in suspension culture, CNBCA. To be noted: 500 nM, 10 days. Format: cell-based.
A further experiment has as its target PTP1B (Homo sapiens (Human), UniProt P18031). The experiment in a line: CETSA with CNBCA, nontarget PTP1B in breast cancer cell lysates. Format: binding. To be noted: 100 μM CNBCA.
In experiment [7] the test system is BT474 and MDA-MB468 cells. The experiment in a line: Cell growth in 2D culture, CNBCA. Format: cell-based. To be noted: 500 nM, 72 h.
The target of experiment [8] is T2, purified PTP domain of SHP1. To be noted: previously reported; cited from earlier work.
In experiment [9] the target is T1, purified PTP domain of SHP2. To be noted: previously reported value; read-out: IC50 SHP2 PTPase activity, parent compound; cited from earlier work.

Usually Km stands for the substrate concentration at which the rate is half of its maximum.

SMILES strings stand for the structures. pIC50: −log10 of the molar value. Where two headings read alike, the source gives them in different places.

Chain of PTP1B (P18031 whole entry): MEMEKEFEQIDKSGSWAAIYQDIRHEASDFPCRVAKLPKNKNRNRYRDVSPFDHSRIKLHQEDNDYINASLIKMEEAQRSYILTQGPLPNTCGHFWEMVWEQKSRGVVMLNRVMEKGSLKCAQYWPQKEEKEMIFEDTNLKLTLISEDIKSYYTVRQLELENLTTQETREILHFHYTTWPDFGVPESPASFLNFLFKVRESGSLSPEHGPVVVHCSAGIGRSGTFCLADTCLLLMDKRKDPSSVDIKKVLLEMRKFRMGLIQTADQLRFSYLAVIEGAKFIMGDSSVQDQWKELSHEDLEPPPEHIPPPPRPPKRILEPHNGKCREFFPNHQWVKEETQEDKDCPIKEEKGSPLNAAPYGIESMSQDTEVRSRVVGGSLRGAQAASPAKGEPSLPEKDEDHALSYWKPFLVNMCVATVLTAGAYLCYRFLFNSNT
T2 sequence (P29350 244-515): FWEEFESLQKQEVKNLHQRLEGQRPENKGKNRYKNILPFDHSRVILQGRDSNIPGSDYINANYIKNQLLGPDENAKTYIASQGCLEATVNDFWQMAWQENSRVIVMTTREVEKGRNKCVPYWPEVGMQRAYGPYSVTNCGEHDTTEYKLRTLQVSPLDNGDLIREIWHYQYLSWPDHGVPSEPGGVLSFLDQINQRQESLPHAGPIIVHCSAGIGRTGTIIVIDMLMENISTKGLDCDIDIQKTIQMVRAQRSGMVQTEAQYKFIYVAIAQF
Chain of purified PTP domain of PTP1B (P18031 3-277): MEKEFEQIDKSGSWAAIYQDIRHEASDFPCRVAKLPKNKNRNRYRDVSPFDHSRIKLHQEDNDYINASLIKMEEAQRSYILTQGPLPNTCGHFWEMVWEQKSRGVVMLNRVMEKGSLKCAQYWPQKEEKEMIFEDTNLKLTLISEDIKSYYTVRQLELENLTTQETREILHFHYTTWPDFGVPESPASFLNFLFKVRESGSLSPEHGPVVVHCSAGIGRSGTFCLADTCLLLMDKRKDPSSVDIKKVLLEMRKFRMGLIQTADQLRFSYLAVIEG

`CCCCCCCCCOc1ccc(-c2ccc(CC(=O)O)cc2)cc1CCCC(=O)O` [CNBBA, 4-(4′-(Carboxymethyl)-4-(nonyloxy)-[1,1′-biphenyl]-3-yl) Butanoic Acid]: in experiment [1], the pIC50 was 5.29 and the fold difference came to 5.8.

Take `CCCCCCCCCOc1ccc(-c2ccc(C(=O)O)cc2)cc1CCCC(=O)O` [CNBCA, 3′-(3-Carboxypropyl)-4′-(nonyloxy)-[1,1′-biphenyl]-4-carboxylic Acid]: the “basal pERK1/2 and pAkt levels” value in experiment [2] (0.250 to 2.0 μM) was “downregulation of basal pERK1/2 and pAkt levels by CNBCA treatment in a concentration dependent manner”. In addition, the pIC50 is approximately 6.00 in experiment [2] (BT474 and MDA-MB468 cells, band density, read-out: approximate IC50, SHP2 mediated Akt and ERK1/2 activation); 6.06 in experiment [1]; 4.46 in experiment [4] (35 μM DiFMUP); 4.60 in experiment [5] (10 μM DiFMUP); 6.21 on FL-SHP2. Further, the “colony formation in soft agar” value in experiment [3] is “fewer and smaller colonies”. In addition, the “better SHP2 IC50 than CNBBA” value in [1] was 5.8 fold. The “better SHP2 IC50 than the parent compound CNBDA” value in [1] was 5.7 fold. Besides, the “Selectivity ratio, SHP2” value in [1] (SHP2 IC50 as reference) is on record as 1.0. Further, in [1], the fold difference turned out to be 1.0. The mechanism of inhibition entry at SHP2 is reported as “competitive inhibitor”. In addition, the Km on SHP2 (in the presence of 1.0 μM CNBCA) came to 125 µM; at SHP2 (in the presence of 2.0 μM CNBCA) it was 291 µM. In addition, the “more selective for SHP2 than for SHP1” value in experiment [4] (from IC50 values) was found to be 39.77 fold. In addition, the “Selectivity ratio, PTP1B” value in [5] (PTP1B IC50 over SHP2 IC50) was 28.73. For the same compound, the mammosphere formation entry in experiment [6] was “fewer and smaller mammospheres”. The “nontarget PTP1B remaining in solution, band density” value at PTP1B (49° C.) is given as “approximately 50%”; at PTP1B (55° C.) it was 25%; at PTP1B (58° C.) it was “less than 10%”. For the same compound, in experiment [7], the “cell growth in 2D culture” value is “still half-confluent”.

As for `CCCCCCCCCOc1c(CCCC(=O)O)cc(-c2ccc(C(=O)O)cc2)cc1CCCC(=O)O` [CNBDA], the “selective to SHP2 than to SHP1, parent compound” value in experiment [8] is listed as “approximately 25 fold”. Further, the fold difference in [1] amounted to 5.7. Also, the pIC50 in experiment [9] was 5.30.

The values are drawn from US20240199525A1, “SHP2-Targeting Small Molecules For Use As Anti-Cancer Agents” (West Virginia University Board of Governors on behalf of …, priority 2022, published 2024).
